Test results as given in US20220290085A1, “CELL-SENSORY BIOSCAFFOLDS, FABRICATION METHODS AND APPLICATIONS OF SAME” (BOARD OF TRUSTEES OF THE UNIVERSITY OF ARKANSAS, priority 2019, published 2022).

Key:
[1] = test system: breast cancer cells (MCF7); test: Doxorubicin drug cytotoxicity in cell culture; assay type: cell-based, human; conditions: drug cytotoxicity assessment, FIG. 23
Description: Impedance Measurement for Doxorubicin Drug Effect on Breast Cancer Cell Lines: This test was performed to investigate the effect of a well-known chemotherapy drug Doxorubicin on two different cancer cell lines. Doxorubicin (DOX, C27H29NO11), also called Adriamycin™, is a popular chemotherapy drug for treating several types of cancer including breast cancer via triggering the cancer cell death. This drug was used to quantify the drug effect on breast cancer cells' metabolism in response to stresses from different dosages of the DOX, via monitoring the impedance signal change from the cancer cells before and after the DOX treatment. The drug cytotoxicity was assessed to determine the concentration of 2.0 μM, which the cancer cells start to die in a proper pace that can enable us to quantitatively characterize the DOX effect on the cancer cell's metabolism and apoptosis directly on the smart bioscaffold, as shown in FIG. 23.

MCF7 [2] = test: Impedance on TiO2 nanowire bioscaffold sensor of DOX-treated MCF7 cells; assay type: cell-based, human; conditions: DOX 2 μM 24 hrs, then glucose 5.5 mM for 35 minutes, 1×PBS, FIG. 24
Description: (§1) To investigate the cell impedance change due to the DOX, the two cell lines were first cultured to reach about 90% confluence and then the DOX (2 μM) was added over two time-intervals, about 24 hours and about 48 hours. The cells were then harvested using trypsin and counted using the hemocytometer and trypan blue stain to control the cell number. The cells were then suspended in about 10 mL of 1×PBS with the TiO2 nanowires sensor for about 35 minutes, and the impedance was tested likewise from about 40 kHz to about 1 MHz. The DOX is supposed to decrease the MCF7 impedance due to cell's resistance to the DOX. This is because the overexpressed P-glycoprotein 1 (P-gp), also called multidrug resistance protein 1 (MDR1) or ATP-binding cassette sub-family B member 1 (ABCB1) or cluster of differentiation 243 (CD243), can pump the foreign molecules out of the MCF7 cell.
(§2) The second set of experiment was done as in the first step, with glucose (5.5 mM) in the cell suspensions to investigate the cell impedance correspondence to glucose effect after being treated with DOX. The biosensors were done after about 35 minutes in the cell suspension, with the impedance parameters same as described previously.

MDA-MB231 = test: Impedance on TiO2 nanowire bioscaffold sensor of DOX-treated MDA-MB231 cells; assay type: cell-based, human; conditions: DOX 2 μM 24 hrs, FIG. 25
Description: as §1, §2

MCF7 [3] = conditions: MCF7 vs MDA-MB231; cited from earlier work

Question: What does the source list for `COc1cccc2c1C(=O)c1c(O)c3c(c(O)c1C2=O)C[C@@](O)(C(=O)CO)C[C@@H]3O[C@H]1C[C@H](N)[C@H](O)[C@H](C)O1` [Doxorubicin]?
Answer: concentration at which the cancer cells start to die in a proper pace [1]: 2.0 µM; impedance on the bioscaffold at low frequency after DOX pre-treatment and glucose incubation (MCF7 [2]): higher impedance; response to glucose after being pre-treated with DOX (MDA-MB231; glucose 5.5 mM): no significant response to glucose; impedance on the bioscaffold after DOX pre-treatment and glucose incubation (MDA-MB231; then glucose 5.5 mM for 35 minutes, 1×PBS): lower impedance; resistance of MCF7 to DOX compared with MDA-MB231 (MCF7 [3]): more resistive
